Reference: US11938125B2, “Use of Hsp70 as a regulator of enzymatic activity” (Zevra Denmark A/S, priority 2008, dated 2024)
Entries after “also recorded” stand apart in the source; their conditions may differ.

Tests used:
NPDA fibroblasts = test: Lysosomal area of confocal cross sections, NPDA fibroblasts; type: cell-based, human; details: for pathology measured by lysosomal cross-sectional area: NPDA Götz cells, 40 mM
From the text: Immunodetection and microscopy. Primary antibodies used included mouse monoclonal antibodies against Hsp70 (2H9; kindly provided by Boris Margulis, Russian Academy of Sciences, St. Petersburg, Russia), glyceraldehyde-3-phosphate dehydrogenase (GAPDH; Biogenesis), BMP (6C4), lysosomal integral membrane protein-1 (H5C6; developed by J. Thomas August and James E. K. Hildreth and obtained from the Developmental Studies Hybridoma Bank developed under the auspices of the NICHD and maintained by The University of Iowa, Department of Biological Sciences, Iowa City, USA). Proteins separated by 10% SDS-PAGE and transferred to a nitrocellulose membrane were detected by using indicated primary antibodies, appropriate peroxidase-conjugated secondary antibodies from Dako, ECL Western blotting reagents (Amersham), and Luminescent Image Reader (LAS-1000Plus, Fujifilm). For immunocytochemistry Alexa […] or Alexa Fluor®-488-conjugated secondary antibodies were used. Lysotracker Red® was used for live visualization of the lysosomal compartment. Fluorescence images were taken using a Zeiss Axiovert 100M laser scanning microscope. Lysotracker quantification and timelapse movies for lysosomal integrity were done on a Zeiss LSM LIVE DUO system.

[1] = tested on: lysosomes of U-2-OS cells; test: Lysosomal integrity upon photo-oxidation (acridine orange and blue light); type: cell-based, human; details: for protection of lysosomes against photo-oxidation (lysosomal integrity): U-2-OS cells, recombinant protein 300 nM, 24 h
Method: Sub-confluent U-2-OS cells incubated with 2 μg/ml acridine orange for 15 min at 37° C. were washed, irradiated and analyzed in Hanks balanced salt solution complemented with 3% FCS. Cells for single cell imaging were selected from 8 pre-defined areas of each well in transmitted light-mode after which the same cells were immediately visualized and exposed to blue light from USH102 100 W mercury arc burner (Ushio electric) installed in a U-ULS100HG housing (Olympus) for 20 sec. Fluorescence microscopy was performed on Olympus IX-70 inverted microscope with a LCPlanF1×20 objective with NA=0.40. Loss of lysosomal pH gradient was quantified by counting the loss of intense red staining.
(§1) Assays for lysosomal integrity. Sub-confluent cells incubated with 2 μg/ml acridine orange for 15 min at 37° C. were washed, irradiated and analyzed in Hanks balanced salt solution complemented with 3% fetal calf serum. Cells for single cell imaging were selected from 8 pre-defined areas of each well in transmitted light-mode after which the same cells were immediately visualized and exposed to blue light from USH102 100 W mercury arc burner (Ushio electric) installed in a U-ULS100HG housing (Olympus) for 20 sec. Fluorescence microscopy was performed on Olympus IX-70 inverted microscope with a LCPlanF1×20 objective with NA=0.40. Loss of lysosomal pH gradient was quantified by counting the loss of intense red staining. A more elaborate method for assaying lysosomal integrity was developed to handle the larger lysosomal compartment of the various fibroblasts used in this study. Cells for single cell imaging were selected from 8 pre-defined areas of each well in transmitted light-mode after which the same cells were immediately and continuously exposed to 489 nm light from a 100 mW diode laser while laser scanning micrographs where captured every 330 ms on a Zeiss LSM LIVE DUO confocal system in two channels defined by bandpass filters for 495-555 nm (green) and LP650 nm (Red) light. The resulting timelapse movies where subsequently analysed by the integrated Zeiss LSM DUO software. The total and cytoplasmic (digitonin-extracted) cathepsin activities were measured in digitonin-treated samples using zFR-AFC (Enzyme System Products) probe as described in the art.

[2] = tested on: U-2-OS osteosarcoma cells; test: Cisplatin-induced apoptosis-like cell death (Hoechst 33342); type: cell-based, human; details: for protection of cells against cisplatin-induced lysosomal cell death: recombinant protein 300 nM 24 h, 25 μM cisplatin 24 h
Method: (§2) Apoptosis-like cell death was assessed by staining the cells with 0.05 μg/ml Hoechst 33342 (Molecular Probes) and counting cells with condensed nuclei in an inverted Olympus IX-70 fluorescent Microscope (Filter U-MWU 330-385 nm). For each experiment a minimum of eight randomly chosen areas were counted.
as §2, with “Assays for cell viability. Cell density was assessed by the 3-(4,5-dimethylthiazole-2-y)-2,5-[…] (MTT, SIGMA-Aldrich) reduction assay essentially as described in the art. Apoptosis-like” for “Apoptosis-like”

POPC/BMP liposomes = test: Tryptophan fluorescence shift upon docking into POPC/BMP liposomes; type: binding; details: pH 6.0
Method: (§3) The tryptophan fluorescence spectra (RFI) and liposome 900 light scattering (RSI) were analyzed in a HEPES buffer (20 mM HEPES, 0.1 mM EDTA, pH 7.4 or 6.0 as indicated) employing LUVs consisting of indicated lipids essentially as described previously. For the RFI, LUVs were added in 10 μM aliquots and spectra recorded after a 20 min stabilization period. For the RSI, recombinant proteins were added in 0.12 nmol aliquots.
as §3, with “Tryptophan fluorescence spectra and liposome 90° light scattering. The” for “The”, “in the art.” for “previously.”

BMP = test: BIAcore surface plasmon resonance with immobilized BMP-containing LUVs; type: binding; details: pH 4.5, L1 sensor chip
Method: (§4) For preparation of LUVs a lipid mixture consisting of 10 mol % sphingomyelin, 50 mol % phosphatidylcholine, 20 mol % cholesterol and 20 mol % BMP dissolved in organic solvents, was dried under a stream of argon and rehydrated in Tris/HCl buffer (pH 7.4) (Kolzer et al., 2004). The mixture was freeze-thawed nine times in liquid nitrogen and then in an incubator at 37° C. After ultrasound bath for 15 min the mixture was passed 21 times through a polycarbonate membrane with a pore diameter of 100 nm. Surface plasmon resonance measurements were performed using a BIAcore 2000 system at 25° C. LUVs (total lipid concentration 0.1 mM) were immobilized on the surface of a L1 sensor chip (BIAcore) in PBS (loading buffer). The running buffer used was sodium acetate buffer (50 mM, pH 4.5). As a control, acid sphingomyelinase (0.2 μM, 60 μl in running buffer) was injected directly on the liposome surface. Response units between 4100 RU-5250RU were obtained. The protein of interest was injected in running buffer at a flow rate of 20 μl/min at the concentrations indicated. After injection a dissociation phase of 10 min was appended.
as §4, with “Surface Plasmon Resonance (BIAcore). For” for “For”, “7.4).” for “7.4) (Kolzer et al., 2004).”, “The protein of interest was injected in running buffer at a flow rate of 20 μl/min at the concentrations indicated. After injection a dissociation phase of 10 min was appended.” left out

[3] = Folding and chaperone function of rHsp70 mutant (circular dichroism, luciferase folding, ATP hydrolysis); type: biochemical
Hsp70 = Hsp70 protein expression by western blotting in NPDA cells; type: cell-based, human; details: NPDA Götz cells, 0, 20, 30, 35, 40, 45 mM
Method: It is shown in Examples 2 and 3 that Hsp70 has a lysosome stabilizing effect via an interaction with BMP. In order to evaluate if this effect is also observed when exposing cells to a chemical Hsp70 inducer, Niemann-Pick Type A (NPDA) patient fibroblasts were treated with the small molecule Hsp70 inducer; Benzyl Alcohol (BA). First, NPDA cells were treated with increasing doses of BA (0, 20, 30, 35, 40, 45 mM), lysed, and analysed by western blotting. The same amount of protein was loaded in each well. […] Next, the stability of NPDA Götz lysosomes after treatment with 40 mM BA was evaluated, using the same methods as described in Example 2. […] Finally, the lysosomal cross-sectional area in NPDA Götz cells after treatment with 40 mM BA was evaluated, using the same methods as described in Example 2.

[4] = tested on: lysosomes of NPDA patient fibroblasts; test: Lysosomal stability of NPDA fibroblasts (photo-oxidation, live single-cell imaging); type: cell-based, human; details: NPDA Götz cells, 40 mM
Method: as §1

HSPs, including Hsp70 = details: cited from earlier work

What does the source list for “rHsp70-W90F: rHsp70 point mutant, tryptophan 90 substituted with phenylalanine”?
lysosomal area / volume of the lysosomal compartment (NPDA fibroblasts; NPDA fibroblasts, 24 h, 300 nM rHsp70 or W90F, 150 nM rASM or combination): effect comparable to control cells; protection of lysosomes against photo-oxidation (lysosomal integrity) [1]: completely lost its ability to protect the lysosomal membranes against photo-oxidation; protection of cells against cisplatin-induced lysosomal cell death [2]: completely lost its ability; relative peak fluorescence intensity (tryptophan fluorescence shift) (POPC/BMP liposomes): reduction of the signal; interaction with BMP-containing LUVs (BIAcore) (BMP): dramatically decreased; also recorded: specifically abolished the interaction between rHsp70 and BMP; luciferase folding and ATP hydrolysis [3]: capable of folding luciferase and hydrolyzing ATP

For OCc1ccccc1 [Benzyl Alcohol], which “pathology measured by lysosomal cross-sectional area” value (NPDA fibroblasts) is on record?
The value was “Decreased pathology”.

What about the “pathology measured by lysosomal cross-sectional area” value (NPDA fibroblasts; listed as BA) of the same molecule?
The value was “decreased pathology”.

And the Hsp70 protein expression (Hsp70)?
The Hsp70 protein expression was “Induction of Hsp70 in NPDA Götz by Benzyl alcohol in a dose-dependent manner”.

What about the Hsp70 protein expression (Hsp70; listed as BA) of the same molecule?
The Hsp70 protein expression was “induced Hsp70 expression in a dose-dependent manner”.

What about the stability of lysosomes [4] of the same molecule?
Its stability of lysosomes is “Increased stability of NPDA Götz lysosomes”.

What about the stability of lysosomes ([4]; listed as BA) of the same molecule?
Its stability of lysosomes is “increased lysosomal stability”.

With “5′-GCCAUGACGAAAGACAACAAUCUGU-3′ (other strand not given here) [Hsp70 siRNA, siRNA targeting the two genes encoding Hsp70, reference compound]” as the molecule, how does the “sensitization of lysosomes to photo-oxidation by siRNA” value ([1]; U-2-OS cells, siRNA 48 h; listed as siRNA) specific for Hsp70) read?
The value was “sensitized lysosomes of U-2-OS cells to photo-oxidation; also recorded: sensitized the lysosomes to photo-oxidation”.

With “Hsp70-2: recombinant Hsp70-2, 84% amino acid sequence homology with Hsp70” as the molecule, how does the “protection of lysosomes against photo-oxidation (lysosomal integrity)” value (shortened to “protection of lysosomes”) [1] read?
The value was “no protection; also recorded: no lysosomal stabilization”.

With [O-][n+]1cccc(/C(Cl)=N/OC[C@H](O)CN2CCCCC2)c1 [Arimoclomol] as the molecule, how does the “induction or co-induction of HSPs / heat shock response” value (HSPs, including Hsp70) read?
Its value is “interacts with and amplifies the heat shock response”.

With “rHsp70-W580F: rHsp70 point mutant, tryptophan 580 substituted with phenylalanine” as the molecule, how does the “protection of lysosomes” value [1] read?
Its value is “same efficacy as the wild-type protein; also recorded: same protective effect as the wild-type protein”.

And the “protection of cells against cisplatin-induced lysosomal cell death” value [2]?
The value was “same efficacy as the wild-type protein; also recorded: same protective effect as the wild-type protein”.

What about the “relative peak fluorescence intensity (tryptophan fluorescence shift)” value (POPC/BMP liposomes) of the same molecule?
Its value is “unchanged signal”.

What about the “interaction with BMP-containing LUVs (BIAcore)” value (BMP) of the same molecule?
Its value is “essentially the same interaction profile as rHsp70”.

For O=C(O)/C=C\C(=O)O.OC(CON=C(Cl)c1cccnc1)CN1CCCCC1 (centres unmarked) [Bimoclomol, [2-hydroxy-3-(1-piperidinyl)propoxy]-3-pyridine-carboximidoyl-chloride maleate], which “induction or co-induction of HSPs / heat shock response” value (HSPs, including Hsp70) is on record?
The value was “capability of Hsp70 co-induction in the absence of unfolded proteins”.

Which “protection of lysosomes” value [1] does the source give for “Hsc70: recombinant Hsc70, 86% amino acid sequence homology with Hsp70” here?
Its value is “no protection; also recorded: no lysosomal stabilization”.

Which lysosomal membrane permeabilization ([2]; U-2-OS cells) does the source give for N.N.[Cl][Pt][Cl] [cisplatin, reference compound] here?
The lysosomal membrane permeabilization was “induces an early lysosomal membrane permeabilization”.

For [O-][n+]1cccc(C(Cl)=NOC[C@H](O)CN2CCCCC2)c1 [BRX-345], which “induction or co-induction of HSPs / heat shock response” value (HSPs, including Hsp70) is on record?
The value was “somewhat lesser ability to induce HSPs”.
